Test systems include UO-31 renal; HS 578T breast; MCF7 breast; RXF 393 renal; SNB-19 CNS; OVCAR-8 ovarian; HCT-116 colon; NCI-H522 lung; T-47D breast; RPMI-8226 leukemia; SK-MEL-5 melanoma; HCC-2998 colon; IGROV1 ovarian; DU-145 prostate; OVCAR-4 ovarian; OVCAR-5 ovarian; SW-620 colon; SN12C renal; EKVX NSCLC; NCI-H460 lung.
What all share (assay): growth of human tumour cells (NCI), 48 h

Structures are written as SMILES.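 48-hour exposure; five concentrations; linearly interpolated endpoints. TGI: concentration producing complete growth inhibition.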 Bounds are passed on as bounds.

On to `COC(=O)C(=O)c1c2ccccc2n2ccc3c4ccccc4[nH]c3c12`, for which the TGI in the assay with UO-31 renal, in the assay with HS 578T breast, in the assay with MCF7 breast, in the assay on RXF 393 renal, in the assay on SNB-19 CNS and in the assay with OVCAR-8 ovarian was > 10 µM in each case. Moreover, the TGI with HCT-116 colon, in the assay with NCI-H522 lung, with T-47D breast, in the assay with RPMI-8226 leukemia, with SK-MEL-5 melanoma and with HCC-2998 colon was > 10 µM each time. Further, the TGI with IGROV1 ovarian, with DU-145 prostate, in the assay with OVCAR-4 ovarian, in the assay with OVCAR-5 ovarian, in the assay on SW-620 colon and with SN12C renal was > 10 µM in each case. Besides, the TGI with EKVX NSCLC and in the assay on NCI-H460 lung was > 10 µM each time.

`O=c1[nH]c(-c2cccc(F)c2)nc2ccccc12`: the TGI in the assay on UO-31 renal is > 67.9 µM; with HS 578T breast, > 78.5 µM; with MCF7 breast, > 100 µM; in the assay with RXF 393 renal, 89.4 µM; with SNB-19 CNS it was 47.2 µM; with OVCAR-8 ovarian, > 93.1 µM. Further, the TGI with HCT-116 colon is > 57.7 µM; with NCI-H522 lung, > 100 µM; with T-47D breast, > 100 µM; with RPMI-8226 leukemia it was > 100 µM; in the assay on SK-MEL-5 melanoma, > 100 µM; in the assay on HCC-2998 colon it was > 100 µM. Besides, the TGI with IGROV1 ovarian is > 100 µM; with DU-145 prostate, > 100 µM; in the assay with OVCAR-4 ovarian, > 65.9 µM; with OVCAR-5 ovarian, > 100 µM; in the assay with SW-620 colon, > 100 µM; with SN12C renal, > 92 µM. Also, the TGI with EKVX NSCLC and with NCI-H460 lung was > 100 µM each time.

With `Cc1ccc2c(c1)C(=O)C(Cc1ccccc1C(=O)O)C2` (stereo not given), the TGI in the assay on UO-31 renal, in the assay on HS 578T breast, with MCF7 breast, in the assay on RXF 393 renal, in the assay with SNB-19 CNS and in the assay with OVCAR-8 ovarian was > 100 µM each time. The TGI with HCT-116 colon, with NCI-H522 lung, in the assay on T-47D breast, in the assay with RPMI-8226 leukemia, in the assay with SK-MEL-5 melanoma and in the assay on HCC-2998 colon was > 100 µM in each case. The TGI with IGROV1 ovarian, in the assay with DU-145 prostate, in the assay on OVCAR-4 ovarian, with OVCAR-5 ovarian, in the assay on SW-620 colon and in the assay on SN12C renal was > 100 µM throughout. Further, the TGI with EKVX NSCLC and with NCI-H460 lung was > 100 µM each time.

Consider `Cc1cc2c(c(C=Nc3ccc([N+](=O)[O-])cc3)c1)OC1(C=C2)Oc2ccccc2C(=O)N1C` (stereo not given), for which the TGI in the assay on UO-31 renal is 42.3 µM; in the assay with HS 578T breast it was > 100 µM; with MCF7 breast, 46 µM; in the assay on RXF 393 renal, 47.5 µM; with SNB-19 CNS it was > 100 µM; with OVCAR-8 ovarian, 36.9 µM. Further, the TGI in the assay with HCT-116 colon was 30.9 µM; in the assay with NCI-H522 lung, > 100 µM; in the assay on T-47D breast it was 26.9 µM; in the assay with RPMI-8226 leukemia, 93.1 µM; in the assay on SK-MEL-5 melanoma, > 100 µM; in the assay on HCC-2998 colon, 36.2 µM. In addition, the TGI worked out at 56.6 µM with IGROV1 ovarian; 54.2 µM in the assay with DU-145 prostate; 64.2 µM with OVCAR-4 ovarian; 82.5 µM in the assay on OVCAR-5 ovarian; 81.1 µM with SW-620 colon; 46.2 µM with SN12C renal. The TGI in the assay on EKVX NSCLC amounted to 43.6 µM; in the assay on NCI-H460 lung, 42.7 µM.

Turning to `Cc1cccc(N=Nc2c(C)nn(C(=O)CC(=O)Nc3ccccc3)c2C)c1`, the TGI in the assay with UO-31 renal, in the assay on HS 578T breast, with MCF7 breast, in the assay with RXF 393 renal, in the assay with SNB-19 CNS and with OVCAR-8 ovarian was > 100 µM throughout. The TGI in the assay with HCT-116 colon, in the assay on NCI-H522 lung, in the assay on T-47D breast, in the assay with RPMI-8226 leukemia, in the assay with SK-MEL-5 melanoma and in the assay on HCC-2998 colon was > 100 µM throughout. In addition, the TGI with IGROV1 ovarian, with DU-145 prostate, in the assay on OVCAR-4 ovarian, in the assay with OVCAR-5 ovarian, in the assay on SW-620 colon and in the assay with SN12C renal was > 100 µM each time. Also, the TGI in the assay with EKVX NSCLC and with NCI-H460 lung was > 100 µM throughout.

In the case of `NC1CC(=O)c2c(Cl)sc(Cl)c21` (stereo not given), the TGI in the assay with UO-31 renal was 20.3 µM; with HS 578T breast it was 70.4 µM; in the assay on MCF7 breast, 7.9 µM; in the assay on RXF 393 renal, 2.95 µM; in the assay on SNB-19 CNS, 42.2 µM; in the assay with OVCAR-8 ovarian, 20 µM. Besides, the TGI worked out at 4.49 µM in the assay on HCT-116 colon; 2.89 µM with NCI-H522 lung; 4.96 µM with T-47D breast; 7.76 µM in the assay on RPMI-8226 leukemia; 22.9 µM with SK-MEL-5 melanoma; 22.7 µM with HCC-2998 colon. In addition, the TGI was found to be 9.84 µM in the assay on IGROV1 ovarian; 16 µM with DU-145 prostate; 16 µM in the assay with OVCAR-4 ovarian; 42.9 µM in the assay on OVCAR-5 ovarian; 3.73 µM in the assay on SW-620 colon; 14.4 µM in the assay on SN12C renal. Moreover, the results for the TGI with EKVX NSCLC and in the assay with NCI-H460 lung were 5.07 µM and 33.7 µM, respectively.

On to `O=c1c2cc([N+](=O)[O-])ccc2n(Cc2ccccc2)n1Cc1ccccc1`, for which the TGI is 27.3 µM in the assay on UO-31 renal; > 31.6 µM in the assay on HS 578T breast; 28.6 µM in the assay with MCF7 breast; > 31.6 µM in the assay with RXF 393 renal; > 31.6 µM in the assay on SNB-19 CNS; 22.4 µM in the assay with OVCAR-8 ovarian. The TGI with HCT-116 colon is > 31.6 µM; with NCI-H522 lung it was 23.6 µM; in the assay on T-47D breast, 24.7 µM; in the assay on RPMI-8226 leukemia it was 18.8 µM; in the assay with SK-MEL-5 melanoma it was 13.3 µM; with HCC-2998 colon, > 31.6 µM. Moreover, the TGI in the assay with IGROV1 ovarian, with DU-145 prostate, in the assay on OVCAR-4 ovarian, with OVCAR-5 ovarian, with SW-620 colon and with SN12C renal was > 31.6 µM each time. The TGI is > 31.6 µM with EKVX NSCLC and 26.9 µM in the assay with NCI-H460 lung.
